Patent US20110098352A1, “N,N-DISUBSTITUTED AMINOALKYLBIPHENYL ANTAGONISTS OF PROSTAGLANDIN D2 RECEPTORS” (AMIRA PHARMACEUTICALS, INC., priority 2008, published 2011)

How the values were obtained:
human DP2 receptor = target: T1, human DP2 receptor (Homo sapiens, UniProt Q9Y5Y4); test: DP2/CRTH2 radioligand binding assay using [3H]PGD2; details: [3H]PGD2 binding, membranes of HEK293 cells expressing recombinant human DP2; read-out: hDP2
T1 construct: expressed in transfected cells
T1 sequence (Q9Y5Y4 1-395): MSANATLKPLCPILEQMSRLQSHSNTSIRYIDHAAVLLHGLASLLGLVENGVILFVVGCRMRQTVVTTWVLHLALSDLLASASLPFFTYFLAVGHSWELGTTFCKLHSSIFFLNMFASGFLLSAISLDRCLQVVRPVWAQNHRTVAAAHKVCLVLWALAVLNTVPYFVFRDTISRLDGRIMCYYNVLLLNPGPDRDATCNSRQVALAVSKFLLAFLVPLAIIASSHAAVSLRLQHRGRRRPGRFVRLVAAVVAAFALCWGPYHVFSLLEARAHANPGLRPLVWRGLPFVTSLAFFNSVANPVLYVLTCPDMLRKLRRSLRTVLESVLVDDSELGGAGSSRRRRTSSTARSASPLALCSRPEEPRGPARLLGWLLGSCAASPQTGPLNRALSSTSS
Experimental: The ability of a compound to bind to the human DP2 receptor is assessed via a radioligand binding assay using [^3H]PGD2. HEK293 cells stably expressing recombinant human DP2 are resuspended in 10 mM Hepes, 7.4 containing 1 mM DTT, lysed and centrifuged at 75,000×g to pellet the membranes. The membranes are resuspended in 10 mM Hepes, 7.4 containing 1 mM DTT and 10% glycerol to approximately 5 mg protein/ml. Membranes (2-10 μg protein/well) are incubated in 96-well plates with 1 nM [^3H]PGD2 and test compound in Assay Buffer (50 mM Hepes, 10 mM MnCl2, 1 mM EDTA, plus or minus 0.2% human serum albumin, pH 7.4) for 60 minutes at room temperature. The reactions are terminated by rapid filtration through Whatman GF/C glass fibre filter plates. The filter plates were pre-soaked in 0.33% polythylenimine for 30 minutes at room temperature then washed in Wash Buffer (50 mM Hepes, 0.5 M NaCl pH 7.4) prior to harvesting. After harvesting, the filter plates are washed 3 times with 1 ml cold Wash Buffer then dried. Scintillant is then added to the plates and the radioactivity retained on the filters is determined on a Packard TopCount (Perkin Elmer). Specific binding is determined as total radioactive binding minus non-specific binding in the presence of 10 μM PGD2. IC50s were determined using GraphPad prism analysis of drug titration curves.

[1] = target: T2, recombinant human CRTH2 receptor (Homo sapiens, UniProt Q9Y5Y4); test: GTPγS binding assay; assay type: biochemical; details: +HSA; CHO cell membranes, 80 nM PGD2; read-out: hDP2 GTPγS μM (+HSA)
T2 construct: expressed in transfected cells
T2 sequence (Q9Y5Y4 1-395): T1 sequence (Q9Y5Y4 1-395)
Experimental: The ability of a compound to inhibit binding of GTP to DP2 is assessed via a membrane GTPγS assay. CHO cells stably expressing the recombinant human CRTH2 receptor are resuspended in 10 mM Hepes, 7.4 containing 1 mM DTT, lysed and centrifuged at 75,000×g to pellet the membranes. The membranes are resuspended in 10 mM Hepes, 7.4 containing 1 mM DTT and 10% glycerol. […] The reactions are terminated by rapid filtration through Whatman GF/B glass fibre filter plates. The filter plates are washed 3 times with 1 ml cold Assay Buffer and dried. Scintillant is then added to the plates and the radioactivity retained on the filters is determined on a Packard TopCount (Perkin Elmer). Specific binding is determined as total radioactive binding minus non-specific binding in the absence of the ligand (80 nM PGD2). IC50s were determined using Graphpad prism analysis of drug titration curves.

human DP1 receptor = target: T3, human DP1 receptor (Homo sapiens, UniProt Q13258); test: DP1 radioligand membrane binding assay using [3H]BWA868C; details: [3H]BWA868C binding, human platelet membranes; read-out: hDP1
T3 construct: tissue Biological Specialty Corporation; host or cells: human platelets, membranes
T3 sequence (Q13258 1-359): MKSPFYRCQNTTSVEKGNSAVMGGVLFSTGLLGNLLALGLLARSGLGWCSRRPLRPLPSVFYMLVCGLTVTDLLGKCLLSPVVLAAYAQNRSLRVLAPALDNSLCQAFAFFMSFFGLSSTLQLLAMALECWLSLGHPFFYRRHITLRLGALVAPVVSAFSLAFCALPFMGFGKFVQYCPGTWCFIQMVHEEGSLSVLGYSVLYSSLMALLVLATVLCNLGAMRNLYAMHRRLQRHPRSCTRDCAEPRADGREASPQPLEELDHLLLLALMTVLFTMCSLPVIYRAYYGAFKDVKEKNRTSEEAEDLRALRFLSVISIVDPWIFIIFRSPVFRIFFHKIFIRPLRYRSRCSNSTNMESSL
Experimental: The ability of a compound to bind to the human DP1 receptor was evaluated via a radioligand membrane binding assay using the DP1 selective synthetic ligand [^3H]BWA868C. Packed human platelets (Biological Specialty Corporation), were resuspended in 6 volumes of Hepes/HBSS buffer (10 mM Hepes, 1 mM DTT in Hanks Balanced Salt Solution (HBSS)), lysed and centrifuged at 75,000×g to pellet the membranes. Membranes were resuspended in Hepes/HBSS buffer to approximately 12 mg protein/ml. Membranes (20 μg protein/well) are incubated in 96-well plates with 2 nM [^3H]BWA868C and test compound in Assay Buffer (50 mM Hepes, 10 mM MnCl2, 1 mM EDTA, plus or minus 0.2% human serum albumin, pH 7.4) for 60 minutes at room temperature. The reactions are terminated by rapid filtration through Whatman GF/C glass fibre filter plates. The filter plates were pre-soaked in […] polethylenimine for 30 minutes at room temperature then washed in Wash Buffer (50 mM Hepes, 0.5 M NaCl pH 7.4) prior to harvesting. After harvesting, the filter plates are washed 3 times with 1 ml cold Wash Buffer then dried. Scintillant is then added to the plates and the radioactivity retained on the filters is determined on a Packard TopCount (Perkin Elmer). Specific binding is determined as total radioactive binding minus non-specific binding in the presence of 10 μM BWA868C. IC50s were determined using GraphPad prism analysis of drug titration curves.

IC50 (human DP2 receptor) [nM] | IC50 [1] [µM] | IC50 (human DP1 receptor) [nM] | SMILES
< 300 | < 0.3 | > 1000 | CCN(Cc1cc(C(F)(F)F)ccc1-c1cc(CC(=O)O)ccc1OC)C(=O)COc1ccccc1 [Compound 1-48, (2′-{[Ethyl-(2-phenoxy-acetyl)-amino]-methyl}-6-methoxy-4′-trifluoromethyl-biphenyl-3-yl)-acetic acid]
< 300 | < 0.3 | > 1000 | COc1ccc(CC(=O)O)cc1-c1ccc(C(F)(F)F)cc1CN(CC(F)(F)F)C(C)=O [Compound 1-4, (2′-{[Acetyl-(2,2,2-trifluoro-ethyl)-amino]-methyl}-6-methoxy-4′-trifluoromethyl-biphenyl-3-yl)-acetic acid]
< 300 | < 0.3 | > 1000 | CCN(Cc1cc(C(F)(F)F)ccc1-c1cc(CC(=O)O)ccc1OC)C(=O)OC [Compound 1-23, {2′-[(Ethyl-methoxycarbonyl-amino)-methyl]-6-methoxy-4′-trifluoromethyl-biphenyl-3-yl}-acetic acid]
< 300 | < 0.3 | > 1000 | CCN(Cc1cc(C(F)(F)F)ccc1-c1cc(CC(=O)O)ccc1OC)C(=O)COC [Compound 1-46, (2′-{[Ethyl-(2-methoxy-acetyl)-amino]-methyl}-6-methoxy-4′-trifluoromethyl-biphenyl-3-yl)-acetic acid]
< 300 | < 0.3 | > 1000 | CCN(Cc1cc(C(F)(F)F)ccc1-c1cc(CC(=O)O)ccc1OC)C(C)=O [Compound 1-2, {2′-[(Acetyl-ethyl-amino)-methyl]-6-methoxy-4′-trifluoromethyl-biphenyl-3-yl}-acetic acid]
< 300 | < 0.3 | > 1000 | CCN(Cc1cc(C(F)(F)F)ccc1-c1cc(CC(=O)O)ccc1OC)C(=O)COc1ccc(Cl)cc1 [Compound 1-93, [2′-({[2-(4-Chloro-phenoxy)-acetyl]-ethyl-amino}-methyl)-6-methoxy-4′-trifluoromethyl-biphenyl-3-yl]-acetic acid]
< 300 | < 0.3 | > 1000 | COc1ccc(CC(=O)O)cc1-c1ccc(C(F)(F)F)cc1CN(C)C(C)=O [Compound 1-1, {2′-[(Acetyl-methyl-amino)-methyl]-6-methoxy-4′-trifluoromethyl-biphenyl-3-yl}-acetic acid]
< 300 | < 0.3 | > 1000 | CCN(Cc1cc(C(F)(F)F)ccc1-c1cc(CC(=O)O)ccc1OC)C(=O)COCc1ccccc1 [Compound 1-92, (2′-{[(2-Benzyloxy-acetyl)-ethyl-amino]-methyl}-6-methoxy-4′-trifluoromethyl-biphenyl-3-yl)-acetic acid]
< 300 | < 0.3 | > 1000 | CCN(Cc1cc(C(F)(F)F)ccc1-c1cc(CC(=O)O)ccc1F)C(C)=O [Compound 1-10, {2′-[(Acetyl-ethyl-amino)-methyl]-6-fluoro-4′-trifluoromethyl-biphenyl-3-yl}-acetic acid]

Second part, the molecule before the results:

SMILES | IC50 (human DP2 receptor) [nM] | IC50 [1] [µM] | IC50 (human DP1 receptor) [nM]
CCN(Cc1cc(C(F)(F)F)ccc1-c1cc(CC(=O)O)ccc1OC)C(=O)OC(C)c1ccc(Cl)cc1 (stereo not drawn) [Compound 1-44, [2′-({[1-(4-Chloro-phenyl)-ethoxycarbonyl]-ethyl-amino)-methyl)-6-methoxy4′-trifluoromethyl-biphenyl-3-yl]-acetic acid] | < 300 | < 0.3 | > 1000
CN(Cc1cc(C(F)(F)F)ccc1-c1cc(CC(=O)O)ccc1F)C(=O)OCc1ccccc1 [Compound 1-29, {2′-[(Benzyloxycarbonyl-methyl-amino)-methyl]-6-fluoro-4′-trifluoromethyl-biphenyl-3-yl}-acetic acid] | < 300 | < 0.3 | > 1000
COc1ccc(CC(=O)O)cc1-c1ccc(C(F)(F)F)cc1CN(C(=O)OCc1ccccc1)C1CCCC1 [Compound 1-35, {2′-[(Benzyloxycarbonyl-cyclopentyl-amino)-methyl]-6-methoxy-4′-trifluoromethyl-biphenyl-3-yl}-acetic acid] | < 300 | < 0.3 | 300 to 1000
CCN(Cc1cc(C(F)(F)F)ccc1-c1cc(CC(=O)O)ccc1OC)C(=O)OCc1cccc(Cl)c1 [Compound 1-43, (2′-{[(3-Chloro-benzyloxycarbonyl)-ethyl-amino]-methyl}-6-methoxy-4′-trifluoromethyl-biphenyl-3-yl)-acetic acid] | < 300 | < 0.3 | > 1000
CCN(Cc1cc(C(F)(F)F)ccc1-c1cc(CC(=O)O)ccc1OC)C(=O)C(C)Oc1ccccc1 (stereo not drawn) [Compound 1-45, (2′-{[Ethyl-(2-phenoxy-propionyl)-amino]-methyl}-6-methoxy-4′-trifluoromethyl-biphenyl-3-yl)-acetic acid] | < 300 | < 0.3 | > 1000
CC(=O)N(Cc1cc(C(F)(F)F)ccc1-c1cc(CC(=O)O)ccc1F)CC(F)(F)F [Compound 1-11, (2′-{[Acetyl-(2,2,2-trifluoro-ethyl)-amino]-methyl}-6-fluoro-4′-trifluoromethyl-biphenyl-3-yl)-acetic acid] | < 300 | < 0.3 | > 1000
COc1ccc(CC(=O)O)cc1-c1ccc(C(F)(F)F)cc1CN(C(C)=O)C1CCCC1 [Compound 1-31, {2′-[(Acetyl-cyclopentyl-amino)-methyl]-6-methoxy-4′-trifluoromethyl-biphenyl-3-yl}-acetic acid] | < 300 | < 0.3 | > 1000
O=C(O)CCn1c2c(c3ccccc31)C[C@H](NS(=O)(=O)c1ccc(F)cc1)CC2 [Ramatroban, reference compound] | 300 to 1000 | 0.3 to 1 | > 1000
CCN(Cc1cc(F)ccc1-c1cc(CC(=O)O)ccc1OC)C(=O)C1CC1 [Compound 1-186, {2′-[(Cyclopropanecarbonyl-ethyl-amino)-methyl]-4′-fluoro-6-methoxy-biphenyl-3-yl}-acetic acid] | < 300 | < 0.3 | > 1000
